We go through seven molecules from patent US5688992A, “O-malonyltryrosyl compounds, O-malonyltryrosyl compound-containing peptides, and use thereof” (The United States of America as represented by the …, priority 1995, dated 1997).

Like-named read-outs stand apart in the source and are kept apart here. Square brackets hold non-standard residues; d marks the D form. Peptide text beside a SMILES is read from it. * marks the point of attachment. F2Pmp = N[C@@H](Cc1ccc(C(F)(F)P(=O)(O)O)cc1)C(=O)O; pY = N[C@@H](Cc1ccc(OP(=O)(O)O)cc1)C(=O)O; L‑OMT = L-O-malonyltyrosine; X1 = O=C(O)C(C(=O)O)*

For assay [1], the target named is T1, N-terminal SH-PTP2 SH2 domain (Homo sapiens, UniProt Q06124).
T1 sequence (Q06124 6-102 limits assumed): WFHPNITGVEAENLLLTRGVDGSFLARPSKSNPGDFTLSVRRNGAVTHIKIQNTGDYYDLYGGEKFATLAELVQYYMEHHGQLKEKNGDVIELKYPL
Particulars: X = pTyr or L-F2Pmp; previously reported (Xiao 1994); cited from earlier work.

The subject of assay [2] is SH-PTP2 mediated mitogenic signaling in rat 1 fibroblasts. As to conditions: Xiao 1994; cited from earlier work.
The next assay has as its target T2, recombinant PTP 1B (Homo sapiens, UniProt P18031).
T2 sequence (P18031 1-435): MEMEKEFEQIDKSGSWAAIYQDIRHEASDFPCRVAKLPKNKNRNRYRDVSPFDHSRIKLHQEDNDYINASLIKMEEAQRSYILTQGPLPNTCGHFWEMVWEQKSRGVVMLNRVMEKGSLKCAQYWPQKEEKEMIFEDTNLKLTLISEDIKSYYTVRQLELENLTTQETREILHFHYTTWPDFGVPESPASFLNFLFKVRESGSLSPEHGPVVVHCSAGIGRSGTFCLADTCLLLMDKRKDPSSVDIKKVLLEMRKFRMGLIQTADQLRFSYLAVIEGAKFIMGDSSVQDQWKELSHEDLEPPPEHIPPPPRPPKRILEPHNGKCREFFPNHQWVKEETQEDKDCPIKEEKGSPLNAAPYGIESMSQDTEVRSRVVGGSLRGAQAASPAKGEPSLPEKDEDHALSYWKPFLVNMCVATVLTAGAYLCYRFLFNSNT
The assay can be described thus: Insulin receptor dephosphorylation by recombinant PTP 1B. The format is biochemical. Particulars: 32P-labeled autophosphorylated insulin receptor as substrate; read-out: inhibition constant / IC50 against PTP 1B dephosphorylation of insulin receptor. The method, then: WGA-purified human insulin receptors were autophosphorylated with [γ-^32 P]ATP as previously described (Liotta, A.S., et al., J. Biol. Chem. 269:22996-23001 (1994)), and this ^32 P-labeled insulin receptor was used as substrate for the assay of PTP 1B activity, essentially following the method described by Burke et al. (Burke, T. R. Jr., Biochem, Biophys. Res. Commun. 204:129-134 (1994)). In brief, ^32 P-labeled autophosphorylated insulin receptors (10 μg/ml) were incubated with 0.5 μg/ml recombinant PTP 1B at 22° C. in a 100 μl reaction containing 50 mM HEPES, pH 7.5, 0.1 mg/ml BSA, 5 mM DTT, 5 mM EDTA, 0.05% Triton X-100, in the absence or presence of various peptides at the indicated concentrations. […] The ^32 P remaining in the 95 kDa insulin receptor β-subunit was quantified by Betagen counting of the fixed and dried gels.
The peptide Ac-D-A-D-E-OMT-L-amide (SEQ. ID. NO. 8) was then examined for inhibitor potency against PTB-1B dephosphorylation of phosphorylated insulin receptor. […] The ^32 P remaining in the 95 kDa insulin receptor β-subunit was quantified by Betagen counting of the fixed and dried gels. […]

Assay [3] deals with C-terminal SH2 domain of PI 3-kinase p85 (Homo sapiens, UniProt P27986). The assay can be described thus: SH2 domain competition binding assay, PI 3-kinase p85 C-terminal SH2. Particulars: X = L-OMT; GST/SH2 fusion vs [125I] IRS-1 pY628 phosphopeptide; read-out: IC50 ± S.E., p85 (C-terminal) SH2 domain. Here is the method:
(§1) Details of the […] domain competition assay are described by Piccione, E., et al., Biochemistry 32:3197-3202 (1993). Briefly, four distinct assays were used to determine relative SH2 domain affinities for pTyr analogues vs. high affinity phosphopeptide ligands. In each assay a glutathione S-transferase (GST)/SH2 domain fusion protein was paired with an appropriate high-affinity [^125 I]Bolton-Hunter radiolabeled phosphopeptide, and varying concentrations of unlabeled peptides were added as competitors. The C-terminal SH2 domain of PI 3-kinase p85 was paired with IRS-1pY628, GNGDpYMPMSPK (SEQ ID NO. 5) (See Piccione, E., et al., Biochemistry 32:3197-3202 (1993)), the Src SH2 domain was paired with hmt pY324, KEPQpYEEIPIYL (SEQ ID NO. 6) (See Payne, G., et al., Proc. Natl. Acad. Sci. USA 90:4902-4906 (1993), the PLCγ-C SH2 domain was paired with PDGF pY1021, DNDpYIIPLPDPK (SEQ ID NO. 7) (See Piccione, E., et al., Biochemistry 32:3197-3202 (1993)), and the Lck SH2 domain was paired with the hmTpY324 sequence similar to assays conducted on the Src SH2 domain. An underline denotes the position of the [^125 I]Bolton-Hunter modified lysine. […] Following centrifugation for 5 min at 12,000 g, supematant solutions were removed by aspiration and [^125 I]radioactivity associated with the unwashed pellets was determined with a γ-counter.

A further assay addresses T3, Src SH2 domain (Homo sapiens, UniProt P12931).
T3 construct: the Src SH2 domain was paired with hmt pY324
The assay can be described thus: SH2 domain competition binding assay, Src SH2. As to conditions: X = L-OMT; GST/SH2 fusion vs [125I] hmT pY324 phosphopeptide; read-out: IC50 ± S.E., Src SH2 domain. Here is the method:
as §1

A further assay addresses T4, Grb2 SH2 domain (Homo sapiens, UniProt P62993).
T4 construct: against the Grb2 SH2 domain construct
The assay can be described thus: SH2 domain competition binding assay, Grb2 SH2.

The target in assay [4] is T1, N-terminal SH-PTP2 SH2 domain. The assay can be described thus: SH2 domain competition binding assay, SH-PTP2 N-terminal SH2. Particulars: X = L-OMT; read-out: IC50 ± S.E., SH-PTP2 (N-terminal) SH2 domain.

For “10 (X = L-F2Pmp): Ac-L-N-X-I-D-L-D-L-V-amide with X = L-F2Pmp in place of L-OMT (Ac-LN[F2Pmp]IDLDLV-NH2; SMILES CC[C@H](C)[C@H](NC(=O)[C@H](Cc1ccc(C(F)(F)P(=O)(O)O)cc1)NC(=O)[C@H](CC(N)=O)NC(=O)[C@H](CC(C)C)NC(C)=O)C(=O)N[C@@H](CC(=O)O)C(=O)N[C@@H](CC(C)C)C(=O)N[C@@H](CC(=O)O)C(=O)N[C@@H](CC(C)C)C(=O)N[C@H](C(N)=O)C(C)C)”, the IC50 in assay [1] was 23 µM. Also, the “effect on SH-PTP2 mediated mitogenic signaling” value in assay [2] is given as “block SH-PTP2 mediated mitogenic signaling”. On to “10 (X = pTyr): Ac-L-N-X-I-D-L-D-L-V-amide with X = pTyr in place of L-OMT (Ac-LN[pY]IDLDLV-NH2; SMILES CC[C@H](C)[C@H](NC(=O)[C@H](Cc1ccc(OP(=O)(O)O)cc1)NC(=O)[C@H](CC(N)=O)NC(=O)[C@H](CC(C)C)NC(C)=O)C(=O)N[C@@H](CC(=O)O)C(=O)N[C@@H](CC(C)C)C(=O)N[C@@H](CC(=O)O)C(=O)N[C@@H](CC(C)C)C(=O)N[C@H](C(N)=O)C(C)C)”, for which the IC50 in assay [1] is 4 µM. With `CC(=O)N[C@@H](CC(=O)O)C(=O)N[C@@H](C)C(=O)N[C@@H](CC(=O)O)C(=O)N[C@@H](CCC(=O)O)C(=O)N[C@@H](Cc1ccc(OC(C(=O)O)C(=O)O)cc1)C(=O)N[C@@H](CC(C)C)C(N)=O` [Ac-D-A-D-E-OMT-L-amide, Ac-Asp-Ala-Asp-Glu-[L-OMT]-Leu-amide] (Ac-DADEY(X1)L-NH2), the IC50 on recombinant PTP 1B is ~10 µM. As to `CSCC[C@H](NC(=O)[C@@H]1CCCN1C(=O)[C@@H](NC(=O)[C@H](Cc1ccc(OC(C(=O)O)C(=O)O)cc1)NC(=O)[C@H](CC(=O)O)NC(C)=O)C(C)C)C(=O)N[C@@H](CC(C)C)C(N)=O` [peptide no. 6, Ac-Asp-[L-OMT]-Val-Pro-Met-Leu-amide] (Ac-DY(X1)VPML-NH2), the IC50 in assay [3] amounted to 14.2 µM. As for `CC[C@H](C)[C@H](NC(=O)[C@H](CCC(=O)O)NC(=O)[C@H](CCC(=O)O)NC(=O)[C@H](Cc1ccc(OC(C(=O)O)C(=O)O)cc1)NC(=O)[C@H](CCC(N)=O)NC(C)=O)C(=O)N1CCC[C@H]1C(N)=O` [peptide no. 7, Ac-Gln-[L-OMT]-Glu-Glu-Ile-Pro-amide] (Ac-QY(X1)EEIP-NH2), at Src SH2 domain, the IC50 was > 200 µM. As to `CC[C@H](C)[C@H](NC(=O)[C@H](CC(N)=O)NC(=O)[C@@H](NC(=O)[C@H](Cc1ccc(OC(C(=O)O)C(=O)O)cc1)NC(=O)[C@H](CC(N)=O)NC(C)=O)C(C)C)C(=O)N[C@@H](CCC(=O)O)C(N)=O` [peptide no. 8, Ac-Asn-[L-OMT]-Val-Asn-Ile-Glu-amide] (Ac-NY(X1)VNIE-NH2), the “activity in Grb2 binding assay” value on Grb2 SH2 domain is “essentially inactive”. As to “Ac-Leu-Asn-[L-OMT]-Ile-Asp-Leu-Asp-Leu-Val-amide ({Ac-Leu-Asn-L‑OMT}-IDLDLV-NH2) [peptide no. 9]”, the IC50 in assay [4] came out at 22 µM.
